Consider 2 molecules from PMC8880564, “Design, Synthesis, and Biological Evaluation of a Novel VEGFR-2 Inhibitor Based on a 1,2,5-Oxadiazole-2-Oxide Scaffold with MAPK Signaling Pathway Inhibition” (Pharmaceuticals, 2022).

Structures are written as SMILES. Where “and” joins values, the source holds several entries; their conditions need not be identical. Identical values can stand only once.

In assay [1] the test system is SF-268. The experiment in a line: NCI-60 one-dose SRB screening. Type of assay: cell-based. The settings on record: Homo sapiens, SF-268, CNS Cancer, 10 µM one dose, 48 h, read-out: growth percentage.
Assay [2] concerns NCI-H522. The experiment in a line: NCI-60 one-dose SRB screening. The class given is cell-based. The following applies: Homo sapiens, NCI-H522, Non-Small Cell Lung Cancer, 10 µM one dose, 48 h, read-out: growth percentage.
In assay [3] the test system is TK-10. The experiment in a line: NCI-60 one-dose SRB screening. Type of assay: cell-based. The following applies: Homo sapiens, TK-10, Renal Cancer, 10 µM one dose, 48 h, read-out: growth percentage.
Assay [4] deals with MDA-MB-468. The experiment in a line: NCI-60 one-dose SRB screening. Type of assay: cell-based. The settings on record: Homo sapiens, MDA-MB-468, Breast Cancer, 10 µM one dose, 48 h, read-out: growth percentage.
The test system of assay [5] is SF-295. The experiment in a line: NCI-60 one-dose SRB screening. The settings on record: Homo sapiens, SF-295, CNS Cancer, 10 µM one dose, 48 h, read-out: growth percentage. Type of assay: cell-based.
Assay [6] has as its system M14. The experiment in a line: NCI-60 one-dose SRB screening. Type of assay: cell-based. The settings on record: Homo sapiens, M14, Melanoma, 10 µM one dose, 48 h, read-out: growth percentage.
In assay [7] the test system is SW-620. The experiment in a line: NCI-60 one-dose SRB screening. The settings on record: Homo sapiens, SW-620, Colon Cancer, 10 µM one dose, 48 h, read-out: growth percentage. The class given is cell-based.
For assay [8], the system named is OVCAR-5. The experiment in a line: NCI-60 one-dose SRB screening. The class given is cell-based. The settings on record: Homo sapiens, OVCAR-5, Ovarian Cancer, 10 µM one dose, 48 h, read-out: growth percentage.
For assay [9], the system named is DU-145. The experiment in a line: NCI-60 one-dose SRB screening. The settings on record: Homo sapiens, DU-145, Prostate Cancer, 10 µM one dose, 48 h, read-out: growth percentage. The class given is cell-based.
Assay [10] concerns SK-MEL-5. The experiment in a line: NCI-60 one-dose SRB screening. Type of assay: cell-based. The following applies: Homo sapiens, SK-MEL-5, Melanoma, 10 µM one dose, 48 h, read-out: growth percentage.
In assay [11] the test system is MALME-3M. The experiment in a line: NCI-60 one-dose SRB screening. Type of assay: cell-based. The following applies: Homo sapiens, Melanoma, 10 µM one dose, 48 h, read-out: growth percentage.
Assay [12] deals with MOLT-4. The experiment in a line: NCI-60 one-dose SRB screening. The class given is cell-based. The settings on record: Homo sapiens, MOLT-4, Leukemia, 10 µM one dose, 48 h, read-out: growth percentage.
Assay [13] has as its system RXF 393. The experiment in a line: NCI-60 one-dose SRB screening. Type of assay: cell-based. The settings on record: Homo sapiens, RXF 393, Renal Cancer, 10 µM one dose, 48 h, read-out: growth percentage.
Assay [14] deals with 786-0. The experiment in a line: NCI-60 one-dose SRB screening. Type of assay: cell-based. The settings on record: Homo sapiens, 786-0, Renal Cancer, 10 µM one dose, 48 h, read-out: growth percentage.
Assay [15] relates to NCI-H226. The experiment in a line: NCI-60 one-dose SRB screening. The class given is cell-based. The following applies: Homo sapiens, NCI-H226, Non-Small Cell Lung Cancer, 10 µM one dose, 48 h, read-out: growth percentage.
Assay [16] deals with UO-31. The experiment in a line: NCI-60 one-dose SRB screening. The settings on record: Homo sapiens, UO-31, Renal Cancer, 10 µM one dose, 48 h, read-out: growth percentage. The class given is cell-based.
Assay [17] has as its system HL-60(TB). The experiment in a line: NCI-60 one-dose SRB screening. The class given is cell-based. The settings on record: Homo sapiens, Leukemia, 10 µM one dose, 48 h, read-out: growth percentage.
For assay [18], the target named is VEGFR-2 (Homo sapiens, UniProt P35968). The experiment in a line: VEGFRx kinase assay (BPS Bioscience kit). The following applies: VEGFR-2 inhibitory activity IC50, duplicate, luminescence kinase kit.
Sequence of VEGFR-2 (P35968 789-1356 limits assumed): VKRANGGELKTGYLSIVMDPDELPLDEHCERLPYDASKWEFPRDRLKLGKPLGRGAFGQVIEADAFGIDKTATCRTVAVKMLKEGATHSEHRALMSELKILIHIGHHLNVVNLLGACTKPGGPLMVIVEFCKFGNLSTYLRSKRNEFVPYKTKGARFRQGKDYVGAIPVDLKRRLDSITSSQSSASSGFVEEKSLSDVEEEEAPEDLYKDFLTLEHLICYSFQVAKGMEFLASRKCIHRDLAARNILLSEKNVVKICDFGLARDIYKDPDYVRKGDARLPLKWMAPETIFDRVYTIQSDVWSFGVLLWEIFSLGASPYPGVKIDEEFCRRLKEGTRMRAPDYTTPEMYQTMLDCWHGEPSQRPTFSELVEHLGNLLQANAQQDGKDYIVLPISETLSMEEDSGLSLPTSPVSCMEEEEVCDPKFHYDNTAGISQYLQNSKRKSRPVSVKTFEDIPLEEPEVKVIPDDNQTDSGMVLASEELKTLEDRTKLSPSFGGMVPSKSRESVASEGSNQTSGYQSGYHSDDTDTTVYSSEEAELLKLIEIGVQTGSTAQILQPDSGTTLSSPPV
Protocol: The kinase assay was performed according to BPS Bioscience® kinase assay kit protocols [17, 74, 75, 76, 77]. […] The master mixture (25 μL) was added to every well then inhibitor solution of each well, labeled as “Test Inhibitor”, was added. For the “Positive Control” and “Blank”, the same solution without inhibitor (Inhibitor buffer) was added. To the wells designated as “Blank”, 1x Kinase Buffer 1 was added. FLT1/VEGFR2/FLT3 enzyme was thawed on ice and diluted with 1x Kinase Buffer 1 then added to the wells designated “Positive Control” and “Test Inhibitor Control”. The plate was incubated at 30 °C for 45 min then ADP-Glo reagent/Kinase-Glo Max reagent was added to each well. The plate was covered with aluminum foil and incubated at room temperature for 15 min. The luminescence was measured using the microplate reader. In case of FLT1 and FLT3, the plate was incubated for 45 min, then Kinase Detection reagent was added to each well and the plate was covered with aluminum foil and incubated at room temperature for another 45 min. The luminescence was measured immediately using the Tecan–spark® reader. A “Blank” value was subtracted from all readings.

By IC50 is commonly meant the concentration at which inhibition is half-maximal. Low readings indicate greater potency, high ones weaker potency. `[O-][n+]1onc(-c2ccccc2)c1CNc1ccc(Nc2nc(C(F)(F)F)nc3c2cnn3-c2ccc(Br)cc2)cc1` [12b, 3-(((4-((1-(4-bromophenyl)-6-(trifluoromethyl)-1H-pyrazolo[3,4-d]pyrimidin-4-yl)amino)phenyl)amino)methyl)-4-phenyl-1,2,5-oxadiazole 2-oxide]: the activity at 10 µM in [1] was 65%; in [2] it was 72.6%; in assay [3], 86.8%; in assay [4] it was 72%; in assay [5] it was 54.5%; in assay [6], 68.2%. For the same molecule, the activity at 10 µM in assay [7] stood at 84.8%; in assay [8], 77.2%; in assay [9] it was 70.8%; in assay [10], 86%; in assay [11], 93.5%; in [12] it was 47%. Also, the activity at 10 µM is 51.2% in assay [13]; 67.2% in assay [14]; 77% in assay [15]; 43.4% in [16]; 79.8% in assay [17]. In addition, the IC50 in assay [18] was 92 nM and 90 nM.

On to `O=c1[nH]c(CNc2ccc(NCc3c(-c4ccccc4)no[n+]3[O-])cc2)nc2c1cnn2-c1ccccc1` [14a, 3-(((4-(((4-oxo-1-phenyl-4,5-dihydro-1H-pyrazolo[3,4-d]pyrimidin-6-yl)methyl)amino)phenyl)amino)methyl)-4-phenyl-1,2,5-oxadiazole 2-oxide], for which the activity at 10 µM came to 73.5% in assay [1]; 60.8% in assay [2]; 102% in assay [3]; 33.2% in assay [4]; 71.8% in assay [5]; 80% in assay [6]. Also, the activity at 10 µM came out at 92.8% in [7]; 64.3% in [8]; 74.6% in assay [9]; 85.3% in assay [10]; 63.6% in [11]; 44% in [12]. For the same molecule, the activity at 10 µM in assay [13] was determined as 98.4%; in assay [14], 102%; in [15], 77.2%; in assay [16] it was 55.9%; in [17], 63.1%.
